pIC50: −log10 of the molar value.
system: KM12 cells; test: KM12 cell viability (CellTiter-Glo); format: cell-based; conditions: Homo sapiens, 72 h; KM12 cell viability, 11-point 3-fold serial dilution, 3 days, CellTiter-Glo; read-out: IC50
Procedure: KM12 or H358 cells were treated with 1000 nM CPD-053 following an 8-point 3-fold serial dilution for 3 days.
KM12 cells seeded in 96-well plates were treated with heterobifunctional compounds following a 11-point 3-fold serial dilution for 3 days.
KM12, H358, HEL, SU-DHL-1 and other cells were cultured at 37° C. with 5% CO2 in RPMI 1640 Medium supplemented with 10% fetal bovine serum. Cells were authenticated using the short tandem repeat (STR) assays. Mycoplasma test results were negative. Stable cell lines were established by lentivirus transduction, selected and maintained in medium containing 1 μg/mL puromycin (Beyotime Biotechnology).
Cells were seeded at a density of 5000 cells per well in 96-well assay plates and treated with test compounds following a 12-point 2-fold serial dilution or a 8-point 3-fold dilution, or 11-point 3-fold serial dilution. Three days later, cell viability was determined using the CellTiter-Glo assay kit (Promega) according to the manufacturer's instructions. The dose-response curves were determined and IC50 values were calculated using the GraphPad Prism software following a nonlinear regression (least squares fit) method.

SMILES | pIC50
O=C1CCC(N2C(=O)c3ccc(NCC(=O)N4CCC(Nc5cccc(C(=O)Nc6cnn7ccc(N8CCC[C@@H]8c8cc(F)ccc8F)nc67)n5)CC4)cc3C2=O)C(=O)N1 (stereo partly drawn) [CPD-460, N-(5-((R)-2-(2,5-difluorophenyl)pyrrolidin-1-yl)pyrazolo[1,5-a]pyrimidin-3-yl)-6-((1-((2-(2,6-dioxopiperidin-3-yl)-1,3-dioxoisoindolin-5-yl)glycyl)piperidin-4-yl)amino)picolinamide] | 7.49
Cc1ncsc1-c1ccc(CNC(=O)[C@@H]2C[C@@H](O)CN2C(=O)[C@@H](NC(=O)CCC(=O)N2CCC(Nc3cccc(C(=O)Nc4cnn5ccc(N6CCC[C@@H]6c6cc(F)ccc6F)nc45)n3)CC2)C(C)(C)C)cc1 [CPD-461, N-(5-((R)-2-(2,5-difluorophenyl)pyrrolidin-1-yl)pyrazolo[1,2-a]pyrimidin-3-yl)-6-((1-(4-(((S)-1-((2S,4R)-4-hydroxy-2-((4-(4-methylthiazol-5-yl)benzyl)carbamoyl)pyrrolidin-1-yl)-3,3-dimethyl-1-oxobutan-2-yl)amino)-4-oxobutanoyl)piperidin-4-yl)amino)picolinamide] | < 6.00
Cc1ncsc1-c1ccc(CNC(=O)[C@@H]2C[C@@H](O)CN2C(=O)[C@@H](NC(=O)CCCCC(=O)N2CCC(Nc3cccc(C(=O)Nc4cnn5ccc(N6CCC[C@@H]6c6cc(F)ccc6F)nc45)n3)CC2)C(C)(C)C)cc1 [CPD-462, N-(5-((R)-2-(2,5-difluorophenyl)pyrrolidin-1-yl)pyrrazolo[1,5-a]pyrimidin-3-yl)-6-((1-(6-(((S)-1-((2S,4R)-4-hydroxy-2-((4-(4-methylthiazol-5-yl)benzyl)carbamoyl)pyrrolidin-1-yl)-3,3-dimethyl-1-oxobutan-2-yl)amino)-6-oxohexanoyl)piperidin-4-yl)amino)picolinamide] | < 6.00
Cc1ncsc1-c1ccc(CNC(=O)[C@@H]2C[C@@H](O)CN2C(=O)[C@@H](NC(=O)CCCCCCC(=O)N2CCC(Nc3cccc(C(=O)Nc4cnn5ccc(N6CCC[C@@H]6c6cc(F)ccc6F)nc45)n3)CC2)C(C)(C)C)cc1 [CPD-463, N-(5-((R)-2-(2,5-difluorophenyl)pyrrolidin-1-yl)pyrazolo[1,5-a]pyrimidin-3-yl)-6-((1-(8-(((S)-1-((2S,4R)-4-hydroxy-2-((4-(4-methylthiazol-5-yl)benzyl)carbamoyl)pyrrolidin-1-yl)-3,3-dimethyl1-oxobutan-2-yl)amino)-8-oxooctanoyl)piperidin-4-yl)amino)picolinamide] | 6.35
Cc1ncsc1-c1ccc(CNC(=O)[C@@H]2C[C@@H](O)CN2C(=O)[C@@H](NC(=O)CCCCCCCCC(=O)N2CCC(Nc3cccc(C(=O)Nc4cnn5ccc(N6CCC[C@@H]6c6cc(F)ccc6F)nc45)n3)CC2)C(C)(C)C)cc1 [CPD-464, N-(5-((R)-2-(2,5-difluorophenyl)pyrrolidin-1-yl)pyrazolo[1,5-a]pyrimidin-3-yl)-6-((1-(10-(((S)-1-((2S,4R)-4-hydroxy-2-((4-(4-methylthiazol-5-yl)benzyl)carbamoyl)pyrrolidin-1-yl)-3,3-dimethyl-1-oxobutan-2-yl)amino)-10-oxodecanoyl)piperidin-4-yl)amino)picolinamide] | 7.06

same assay, conditions: Homo sapiens, 72 h; KM12 cell viability, CellTiter-Glo, three days treatment; read-out: IC50

SMILES | pIC50
Cc1ncsc1-c1ccc(CNC(=O)[C@@H]2C[C@@H](O)CN2C(=O)[C@@H](NC(=O)COCCOCCOCCOCCOCC(=O)N2CCN(c3cccc(-c4cnc5ccc(N6CCCC6c6cccc(F)c6)nn45)n3)CC2)C(C)(C)C)cc1 (stereo partly drawn) [CPD-003, (25,4R)-1-((S)-2-(tert-butyl)-20-(4-(6-(6-((R)-2-(3-Fluorophenyl)pyrrolidin-1-yl)imidazo[1,2-b]pyridazin-3-yl)pyridin-2-yl)piperazin-1-yl)-4,20-dioxo-6,9,12,15,18-pentaoxa-3-azaicosanoyl)-4-hydroxy-N-(4-(4-methylthiazol-5-yl)benzyl)pyrrolidine-2-carboxamide] | < 6.00
Cc1ncsc1-c1ccc(CNC(=O)[C@@H]2C[C@@H](O)CN2C(=O)[C@@H](NC(=O)CCOCCOCCOCCOCCOCCC(=O)N2CCN(c3cccc(-c4cnc5ccc(N6CCCC6c6cccc(F)c6)nn45)n3)CC2)C(C)(C)C)cc1 (stereo partly drawn) [CPD-005, (25,4R)-1-((S)-2-(tert-butyl)-22˜ (4-(6-(6-((R)-2˜ (3-Fluorophenyl)pyrrolidin-1-yl)imidazo[1,2-b]pyridazin-3-yl)pyridin-2-yl)piperazin-1-yl)-4,22-dioxo-7,10,13,16,19-pentaoxa-3-azadocosanoyl)-4-hydroxy-N-(4-(4-methylthiazol-5-yl)benzyl)pyrrolidine-2-carboxamide] | < 6.00
Cc1ncsc1-c1ccc(CNC(=O)[C@@H]2CC(O)CN2C(=O)[C@@H](NC(=O)CCOCCOCCOCCOCCOCCC(=O)N2CCN(c3ccc(C(=O)Nc4n[nH]c5ccc(Cc6cc(F)cc(F)c6)cc45)c(NC4CCOCC4)c3)CC2)C(C)(C)C)cc1 (stereo partly drawn) [CPD-043, (28,4R)-1-((S)-2-(tert-butyl)-22-(4-(4-((5-(3,5-Difluorobenzyl)-1H-indazol-3-yl)carbamoyl)-3-((tetrahydro-2H-pyran-4-yl)amino)phenyl)piperazin-1-yl)-4,22-dioxo-7,10,13,16,19-pentaoxa-3-azadocosanoyl)-4-hydroxy-N-(4-(4-methylthiazol-5-yl)benzyl)pyrrolidine-2-carboxamide] | < 6.00

molecular target: T1, TPM3-TRKA fusion protein (Homo sapiens, UniProt P04629); test: TPM3-TRKA fusion protein levels in KM12 cells (Western blot); format: cell-based; conditions: 16 h; TPM3-TRKA degradation in KM12 cells at 10 nM compound, category of percentage degradation; read-out: Degradation (at 10 nM)
T1 construct: The resulted chimeric proteins always retain the kinase domain of TRK proteins; TPM3 (fusion partner, N-terminal part of tropomyosin alpha-3, P06753); endogenous in cells; host or cells: KM12 colon cancer cells; the other entry of the earlier key: TPM3 (P06753, Tropomyosin alpha-3 chain)
Method in brief: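 KM12 colon cancer cells were treated with DMSO or compounds at 0.1–100 nM, 0.4–30 nM or other stated concentrations for 4, 8–16 or 16 h. RIPA lysates were BCA-normalized and resolved by SDS-PAGE. TPM3-TRKA was detected by chemiluminescent Western blot, with bands quantified by densitometry.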

T1 sequence (P04629 with tags, fused parts or gaps): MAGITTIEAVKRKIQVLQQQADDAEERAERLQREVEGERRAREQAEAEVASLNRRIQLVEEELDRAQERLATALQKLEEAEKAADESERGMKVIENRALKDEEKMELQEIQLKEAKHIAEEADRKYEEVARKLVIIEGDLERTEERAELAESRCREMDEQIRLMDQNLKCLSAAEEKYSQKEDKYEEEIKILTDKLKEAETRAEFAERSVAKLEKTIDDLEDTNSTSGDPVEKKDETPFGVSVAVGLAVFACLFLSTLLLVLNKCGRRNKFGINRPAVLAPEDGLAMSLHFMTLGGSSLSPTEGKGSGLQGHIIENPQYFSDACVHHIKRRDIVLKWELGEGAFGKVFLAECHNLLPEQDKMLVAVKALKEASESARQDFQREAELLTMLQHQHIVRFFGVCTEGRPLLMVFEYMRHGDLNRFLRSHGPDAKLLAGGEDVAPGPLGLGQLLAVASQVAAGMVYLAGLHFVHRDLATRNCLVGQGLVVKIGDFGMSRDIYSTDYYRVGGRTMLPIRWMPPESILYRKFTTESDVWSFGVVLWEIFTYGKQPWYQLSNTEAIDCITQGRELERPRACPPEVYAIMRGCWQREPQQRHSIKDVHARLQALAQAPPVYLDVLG

SMILES | percent degradation of TPM3-TRKA protein at 0.01 µM
O=C1CCC(N2C(=O)c3ccc(N4CCC(CN5CCN(c6cccc(-c7cnc8ccc(N9CCC[C@@H]9c9cccc(F)c9)nn78)n6)CC5)CC4)cc3C2=O)C(=O)N1 (stereo partly drawn) [TR-226, 2-(2,6-dioxopiperidin-3-yl)-5-(4-((4-(6-(6-((R)-2-(3-fluorophenyl)pyrrolidin-1-yl)imidazo[1,2-b]pyridazin-3-yl)pyridin-2-yl)piperazin-1-yl)methyl)piperidin-1-yl)isoindoline-1,3-dione] | > 80%
O=C1CCC(N2C[C@H](c3ccc(CN4CCN(c5cccc(-c6cnc7ccc(N8CCC[C@@H]8c8cccc(F)c8)nn67)n5)CC4)cc3)OC2=O)C(=O)N1 (stereo partly drawn) [TR-229, 3-((S)-5-(4-((4-(6-(6-((R)-2-(3-fluorophenyl)pyrrolidin-1-yl)imidazo[1,2-b]pyridazin-3-yl)pyridin-2-yl)piperazin-1-yl)methyl)phenyl)-2-oxooxazolidin-3-yl)piperidine-2,6-dione] | 50 to 80%
O=C1CCC(N2C(=O)c3ccc(NCCN4CCN(c5ccc(C(=O)Nc6n[nH]c7ccc(Cc8cc(F)cc(F)c8)cc67)c(NC6CCOCC6)c5)CC4)cc3C2=O)C(=O)N1 (stereo not shown) [TR-232, N-(5-(3,5-difluorobenzyl)-1H-indazol-3-yl)-4-(4-(2-((2-(2,6-dioxopiperidin-3-yl)-1,3-dioxoisoindolin-5-yl)amino)ethyl)piperazin-1-yl)-2-((tetrahydro-2H-pyran-4-yl)amino)benzamide] | > 80%
O=C1CCC(N2C[C@H](c3cccc(CN4CCN(c5cccc(-c6cnc7ccc(N8CCC[C@@H]8c8cccc(F)c8)nn67)n5)CC4)c3)OC2=O)C(=O)N1 (stereo partly drawn) [TR-235, 3—((S)-5-(3-((4-(6-(6-((R)-2-(3-Fluorophenyl)pyrrolidin-1-yl)imidazo[1,2-b]pyridazin-3-yl)pyridin-2-yl)piperazin-1-yl)methyl)phenyl)-2-oxooxazolidin-3-yl)piperidine-2,6-dione] | 50 to 80%

same assay, conditions: KM12, 16 h, read-out: Degradation (at 10 nM)

SMILES | percent degradation of TPM3-TRKA protein at 0.01 µM
Cn1c(=O)n(C2CCC(=O)NC2=O)c2cccc(OCCCN3CCN(c4cccc(-c5cnc6ccc(N7CCC[C@@H]7c7cccc(F)c7)nn56)n4)CC3)c21 (stereo partly shown) [TR-245] | < 50%

Source: patent US12410171B2, “Tropomyosin receptor kinase (TRK) degradation compounds and methods of use” (Cullgen (Shanghai), Inc., priority 2020, dated 2025)
